In patent US20230257372A1 (CHONG KUN DANG PHARMACEUTICAL CORP., priority 2020, published 2023):
Where two headings read alike, the source gives them in different places.

Columns and labels:
[1] = biological target: T1, human recombinant HDAC6 (Homo sapiens, UniProt Q9UBN7); test: HDAC6 enzyme activity inhibition (HDAC Fluorimetric Drug Discovery Kit); type: biochemical
T1 construct: purchased Calbiochem Inc. 382180
T1 sequence (Q9UBN7 1-1215): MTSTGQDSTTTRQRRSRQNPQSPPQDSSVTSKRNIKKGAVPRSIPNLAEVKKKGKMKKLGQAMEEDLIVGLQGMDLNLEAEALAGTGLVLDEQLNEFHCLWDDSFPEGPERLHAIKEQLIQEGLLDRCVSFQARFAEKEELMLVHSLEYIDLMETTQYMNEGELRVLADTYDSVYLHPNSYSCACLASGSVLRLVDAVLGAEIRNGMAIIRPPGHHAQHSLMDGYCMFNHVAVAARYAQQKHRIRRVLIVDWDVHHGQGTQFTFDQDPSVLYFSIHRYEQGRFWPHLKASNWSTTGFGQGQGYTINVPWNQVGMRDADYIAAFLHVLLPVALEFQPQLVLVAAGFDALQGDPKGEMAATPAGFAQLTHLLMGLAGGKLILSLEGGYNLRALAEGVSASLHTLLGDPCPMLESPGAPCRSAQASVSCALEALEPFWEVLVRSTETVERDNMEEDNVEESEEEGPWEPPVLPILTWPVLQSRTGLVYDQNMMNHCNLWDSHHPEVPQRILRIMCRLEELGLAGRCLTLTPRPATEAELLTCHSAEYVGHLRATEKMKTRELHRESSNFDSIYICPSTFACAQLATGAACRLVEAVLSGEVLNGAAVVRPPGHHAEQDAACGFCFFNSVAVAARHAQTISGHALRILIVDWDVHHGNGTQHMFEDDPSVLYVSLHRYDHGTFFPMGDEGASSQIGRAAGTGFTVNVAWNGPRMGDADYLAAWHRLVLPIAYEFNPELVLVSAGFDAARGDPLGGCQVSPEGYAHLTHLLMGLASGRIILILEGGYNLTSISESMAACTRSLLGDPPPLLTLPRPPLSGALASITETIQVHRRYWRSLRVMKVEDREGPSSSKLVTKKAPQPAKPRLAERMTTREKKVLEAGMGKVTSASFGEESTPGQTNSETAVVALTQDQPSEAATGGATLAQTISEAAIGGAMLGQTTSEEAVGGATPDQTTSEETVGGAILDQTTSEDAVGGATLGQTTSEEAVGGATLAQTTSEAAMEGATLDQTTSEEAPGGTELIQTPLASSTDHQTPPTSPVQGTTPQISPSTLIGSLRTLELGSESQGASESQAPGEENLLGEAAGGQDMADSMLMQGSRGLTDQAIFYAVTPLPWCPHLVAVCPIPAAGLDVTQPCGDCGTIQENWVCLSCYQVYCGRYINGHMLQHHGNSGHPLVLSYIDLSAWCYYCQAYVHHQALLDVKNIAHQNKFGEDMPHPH
In short: (§1)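 Each isoform is run in the same format: compound dilutions (5-fold steps), 10 μM substrate, […] enzyme, one hour at 30° C, then 30 minutes with developer before fluorescence readout.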

[2] = biological target: T2, human recombinant HDAC1 (Homo sapiens, UniProt Q13547); test: HDAC1 enzyme activity inhibition (HDAC Fluorimetric Drug Discovery Kit); type: biochemical; conditions: read-out: HDAC1
T2 construct: purchased Enzo Life Science, Inc. BML-SE456
T2 sequence (Q13547 whole entry): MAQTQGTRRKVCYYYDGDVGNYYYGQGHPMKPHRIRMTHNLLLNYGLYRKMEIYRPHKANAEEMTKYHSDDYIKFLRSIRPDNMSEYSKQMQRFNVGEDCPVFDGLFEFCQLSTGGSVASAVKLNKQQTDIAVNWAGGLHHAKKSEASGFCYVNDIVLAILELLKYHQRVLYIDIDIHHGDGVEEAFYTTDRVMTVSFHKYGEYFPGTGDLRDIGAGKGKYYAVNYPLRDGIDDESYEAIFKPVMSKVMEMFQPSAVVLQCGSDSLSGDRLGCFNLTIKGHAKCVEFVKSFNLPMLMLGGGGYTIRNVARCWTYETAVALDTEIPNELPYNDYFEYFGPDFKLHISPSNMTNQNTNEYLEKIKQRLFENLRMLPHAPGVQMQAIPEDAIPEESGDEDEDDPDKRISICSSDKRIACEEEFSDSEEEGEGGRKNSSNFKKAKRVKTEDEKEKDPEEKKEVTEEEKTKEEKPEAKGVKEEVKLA
In short: as §1

[3] = human recombinant HDAC6, IC50 calculated with GraphPad Prism
[4] = human recombinant HDAC1, IC50 calculated with GraphPad Prism
[5] = human recombinant HDAC6, same protocol as HDAC1
[6] = human recombinant HDAC1, Fluor de Lys substrate, 30° C. 60 minutes

| HDAC6 selectivity (fold) ([1]; HDAC1 IC50 / HDAC6 IC50) | IC50 [1, 3] [nM] | IC50 [2, 4] [nM] | HDAC6 selectivity (fold) ([1]; HDAC6 over HDAC1) | IC50 [1, 5] [nM] | IC50 [2, 6] [nM] | Compound |
| --- | --- | --- | --- | --- | --- | --- |
| 3355 | 14.9 | > 50000 | – | – | – | CC(C)(C)OC(=O)NC1(C(=O)Nc2cccc(-c3cn(Cc4ccc(-c5nnc(C(F)F)o5)cn4)nn3)c2)CCC1 [Compound 4496, tert-butyl (1-((3-(1-((5-(5-(difluoromethyl)-1,3,4-oxadiazol-2-yl)pyridin-2-yl)methyl)-1H-1,2,3-triazol-4-yl)phenyl)carbamoyl)cyclobutyl)carbamate] |
| – | – | – | 1893 | 26.4 | > 50000 | CCN(CC)Cc1ccc(-c2cn(Cc3ccc(-c4nnc(C(F)F)o4)cc3F)nn2)cc1 [Compound 4608, N-(4-(1-(4-(5-(difluoromethyl)-1,3,4-oxadiazol-2-yl)-2-fluorobenzyl)-1H-1,2,3-triazol-4-yl)benzyl)-N-ethylethanamine] |
| – | – | – | 524 | 95.4 | > 50000 | CN(C)Cc1ccc(-c2cn(Cc3ccc(-c4nnc(C(F)F)o4)cc3F)nn2)cc1Cl [Compound 18711, 1-(2-chloro-4-(1-(4-(5-(difluoromethyl)-1,3,4-oxadiazol-2-yl)-2-fluorobenzyl)-1H-1,2,3-triazol-4-yl)phenyl)-N,N-dimethylmethanamine] |
| – | – | – | 225 | 222 | > 50000 | Fc1cc(-c2nnc(C(F)F)o2)ccc1Cn1cc(-c2ccccc2CN2CC3(COC3)C2)nn1 [Compound 4586, 6-(2-(1-(4-(5-(difluoromethyl)-1,3,4-oxadiazol-2-yl)-2-fluorobenzyl)-1H-1,2,3-triazol-4-yl)benzyl)-2-oxa-6-azaspiro[3.3]heptane] |
| 1562 | 33.2 | > 50000 | – | – | – | CN(C)CC(=O)Nc1cccc(-c2cn(Cc3ccc(-c4nnc(C(F)F)o4)cc3F)nn2)c1 [Compound 4352, N-(3-(1-(4-(5-(difluoromethyl)-1,3,4-oxadiazol-2-yl)-2-fluorobenzyl)-1H-1,2,3-triazol-4-yl)phenyl)-2-(dimethylamino)acetamide] |
| 1650 | 30.3 | > 50000 | – | – | – | CCN1CC(C(=O)Nc2cccc(-c3cn(Cc4ccc(-c5nnc(C(F)F)o5)cn4)nn3)c2)C1 [Compound 4464, N-(3-(1-((5-(5-(difluoromethyl)-1,3,4-oxadiazol-2-yl)pyridin-2-yl)methyl)-1H-1,2,3-triazol-4-yl)phenyl)-1-ethylazetidin-3-carboxamide] |
| – | – | – | 167 | 299 | > 50000 | CC(C)(C)OC(=O)N1CC(N2CCC(c3cccc(-c4cn(Cc5ncc(-c6nnc(C(F)F)o6)cc5F)nn4)c3)CC2)C1 [Compound 18872, tert-butyl 3-(4-(3-(1-((5-(5-(difluoromethyl)-1,3,4-oxadiazol-2-yl)-3-fluoropyridin-2-yl)methyl)-1H-1,2,3-triazol-4-yl)phenyl)piperidin-1-yl)azetidin-1-carboxylate] |
| 134 | 372 | > 50000 | – | – | – | CN1CCC(c2cn(Cc3ccc(-c4nnc(C(F)F)o4)cn3)nn2)CC1 [Compound 3806, 2-(difluoromethyl)-5-(6-((4-(1-methylpiperidin-4-yl)-1H-1,2,3-triazol-1-yl)methyl)pyridin-3-yl)-1,3,4-oxadiazole] |
| – | – | – | 495 | 101 | > 50000 | CN1Cc2ccc(-c3cn(Cc4ccc(-c5nnc(C(F)F)o5)cc4)nn3)cc2C1 [Compound 4513, 2-(difluoromethyl)-5-(4-((4-(2-methylisoindolin-5-yl)-1H-1,2,3-triazol-1-yl)methyl)phenyl)-1,3,4-oxadiazole] |
| – | – | – | 4672 | 10.7 | > 50000 | FC(F)c1nnc(-c2ccc(Cn3cc(-c4ccc(CN5CCCC5)cc4)nn3)nc2)o1 [Compound 4560, 2-(difluoromethyl)-5-(6-((4-(4-(pyrrolidin-1-ylmethyl)phenyl)-1H-1,2,3-triazol-1-yl)methyl)pyridin-3-yl)-1,3,4-oxadiazole] |
| – | – | – | 4464 | 11.2 | > 50000 | Fc1cc(-c2nnc(C(F)F)o2)ccc1Cn1cc(-c2ccc(CN3CCCC3)cc2)nn1 [Compound 4521, 2-(difluoromethyl)-5-(3-fluoro-4-((4-(4-(pyrrolidin-1-ylmethyl)phenyl)-1H-1,2,3-triazol-1-yl)methyl)phenyl)-1,3,4-oxadiazole] |
| – | – | – | 603 | 82.9 | > 50000 | Fc1cc(-c2nnc(C(F)F)o2)ccc1Cn1cc(-c2ccc(CN3CCC(F)(F)CC3)nc2)nn1 [Compound 17778, 2-(difluoromethyl)-5-(4-((4-(6-((4,4-difluoropiperidin-1-yl)methyl)pyridin-3-yl)-1H-1,2,3-triazol-1-yl)methyl)-3-fluorophenyl)-1,3,4-oxadiazole] |
| 1623 | 30.8 | > 50000 | – | – | – | CN1CCc2cc(-c3cn(Cc4ccc(-c5nnc(C(F)F)o5)cn4)nn3)ccc2C1 [Compound 4051, 2-(difluoromethyl)-5-(6-((4-(2-methyl-1,2,3,4-tetrahydroisoquinolin-6-yl)-1H-1,2,3-triazol-1-yl)methyl)pyridin-3-yl)-1,3,4-oxadiazole] |
| 889 | 56.2 | > 50000 | – | – | – | FC(F)c1nnc(-c2ccc(Cn3cc(-c4cccc(NC5COC5)c4)nn3)cc2)o1 [Compound 4326, N-(3-(1-(4-(5-(difluoromethyl)-1,3,4-oxadiazol-2-yl)benzyl)-1H-1,2,3-triazol-4-yl)phenyl)oxetan-3-amine] |
| 178 | 280 | > 50000 | – | – | – | FC(F)c1nnc(-c2ccc(Cn3cc(C4CCN(C5CC6(COC6)C5)CC4)nn3)nc2)o1 [Compound 3810, 2-(6-((4-(1-(2-oxaspiro[3.3]heptan-6-yl)piperidin-4-yl)-1H-1,2,3-triazol-1-yl)methyl)pyridin-3-yl)-5-(difluoromethyl)-1,3,4-oxadiazole] |
| – | – | – | 2512 | 19.9 | > 50000 | Fc1cc(-c2nnc(C(F)F)o2)ccc1Cn1cc(-c2ccc(CN3CC[C@@H](F)C3)cc2)nn1 [Compound 4607, (R)-2-(difluoromethyl)-5-(3-fluoro-4-((4-(4-((3-fluoropyrrolidin-1-yl)methyl)phenyl)-1H-1,2,3-triazol-1-yl)methyl)phenyl)-1,3,4-oxadiazole] |
| – | – | – | 626 | 79.8 | > 50000 | Fc1cc(-c2nnc(C(F)F)o2)ccc1Cn1cc(-c2ccc(C3CN(C4COC4)C3)cc2)nn1 [Compound 17700, 2-(difluoromethyl)-5-(3-fluoro-4-((4-(4-(1-(oxetan-3-yl)azetidin-3-yl)phenyl)-1H-1,2,3-triazol-1-yl)methyl)phenyl)-1,3,4-oxadiazole] |
| 2283 | 21.9 | > 50000 | – | – | – | Fc1cc(-c2nnc(C(F)F)o2)ccc1Cn1cc(-c2ccc(CN3CC(F)C3)cc2)nn1 [Compound 4467, 2-(difluoromethyl)-5-(3-fluoro-4-((4-(4-((3-fluoroazetidin-1-yl)methyl)phenyl)-1H-1,2,3-triazol-1-yl)methyl)phenyl)-1,3,4-oxadiazole] |
| 1253 | 39.9 | > 50000 | – | – | – | CN1CCN(Cc2ccc(-c3cn(Cc4ccc(-c5nnc(C(F)F)o5)cc4F)nn3)cc2)CC1 [Compound 4473, 2-(difluoromethyl)-5-(3-fluoro-4-((4-(4-((4-methylpiperazin-1-yl)methyl)phenyl)-1H-1,2,3-triazol-1-yl)methyl)phenyl)-1,3,4-oxadiazole] |
